# Read-outs that look alike come from different tables or passages of the source. Marks after values point to notes of the source that are not given here.
# Assays:
# mouse model of CML‐BC = details: cited from earlier work
# [1] = system: plasma cytokines, chemokines, and growth factors; assay type: in vivo, human; details: IL‐1β, IL‐2, IL‐4, IL‐6, IL‐8, IFNγ, TNFα; IL‐15, IL‐17A; MCP‐1, and IP‐10
# phosphodiesterase 3 = experiment: Phosphodiesterase 3 activity; assay type: biochemical; details: read-out: IC50, phosphodiesterase 3
# healthy volunteers [2] = experiment: Intensive ECG monitoring in healthy volunteers; assay type: in vivo, human
# bacteria = experiment: Bacterial reverse mutation assay; assay type: cell-based
# Plasma protein binding = assay type: in vitro ADME, human, dog
# [3] = system: stem cells derived from patients with CML‐BC or Philadelphia chromosome–positive acute lymphoblastic leukemia; details: in combination with tyrosine kinase inhibitors; cited from earlier work
# [4] = In vitro induction of chromosome aberrations; assay type: cell-based
# rat = experiment: In vivo micronucleus test in rat
# dogs [5] = experiment: Single oral dose-escalation study in dogs; assay type: in vivo, dog; details: at 30 mg/kg/day
# [6] = system: pro‐inflammatory cytokines, chemokines, and growth factors; details: in vivo; cited from earlier work
# [7] = First-in-human pharmacokinetics in healthy volunteers; assay type: in vivo; details: for Mean t1/2 / AUC(0-inf) / AUC(0-t) / Cmax / Tmax / Vd/F: healthy volunteers; for Mean t1/2 / AUC(0-inf) / AUC(0-t) / Cmax / Tmax / half-life / Vd/F: [SD]; for AUC(0-inf) / AUC(0-t) / Cmax / Tmax / half-life / Vd/F: human, plasma, po; for AUC(0-inf): Mean AUC0−inf; for AUC(0-t): Mean AUC0−t; for Cmax: Mean Cmax; for Tmax: Mean Tmax; for half-life: Mean t1/2, healthy volunteers
# 4-week study in dogs = assay type: in vivo, dog; details: dog
# dogs [8] = experiment: 4-week study in dogs; assay type: in vivo, dog; details: dogs
# healthy volunteers [9] = details: for AEs grade 1–2 CTCAE, % / AEs grade 3 CTCAE: ↑CK, % / Gastrointestinal disorders, % / Investigations, % / ↑ALT (%) / ↑CK (%) / ↓WBC (%) / SAEs: seizure (%) / Diarrhea, %: number of subjects (%); for Diarrhea, %: grade 1–2
# [10] = 10 mg, oral 10 mg single dose FASTED (N = 16)
# [11] = 10 mg, oral 10 mg single dose FED (N = 9)
# [12] = 20 mg, oral 20 mg single dose FASTED (N = 14)
# [13] = 10 mg single dose FASTED (N = 16)
# [14] = 20 mg single dose FASTED (N = 14)
structure (smiles),measurement,setting,value
N#Cc1ccc(-c2cnc3ccc(-c4ccc(C(=O)N5CCOCC5)cc4)cn23)cc1 [ETC‐206],tumor growth,mouse model of CML‐BC; in combination with tyrosine kinase inhibitors,inhibited tumor growth
same,antitumor activity,mouse model of CML‐BC; single agent,no antitumor activity
same,"activity on plasma cytokines, chemokines, and growth factors",[1],did not show any activity
same,IC50,phosphodiesterase 3,2.25 µM
same,relationship between ETC‐206 plasma concentrations and changes from baseline of QTcF,"healthy volunteers [2]; mixed effects regression model, flat slope (P = 0.7) of each dose and condition",no relationship
same,proarrhythmic risks,healthy volunteers [2]; range of doses explored (10 and 20 mg single doses),no evidence for ETC‐206 proarrhythmic risks
same,mutagenicity,bacteria,did not show any mutagenicity
same,plasma protein binding in humans compared with dogs,Plasma protein binding,higher
same,survival of stem cells,[3],impeded survival
same,mutagenicity,[4],did not show any mutagenicity
same,mutagenicity,rat,did not show any mutagenicity
same,"cardiovascular parameters (blood pressure, heart rate, cardiac repolarization)",dogs [5],affected cardiovascular (CV) parameters
same,"plasma levels of pro‐inflammatory cytokines, chemokines, and growth factors",[6],decrease plasma levels
same,dose proportionality,[7]; 10 to 20 mg single doses in fasted condition,showed dose proportionality
same,Mean t1/2,[7]; oral 10 mg single dose FASTED (N = 16),22.95 [5.63] hour
same,Mean t1/2,[7]; oral 10 mg single dose FED (N = 9),27.57 [5.68] hour
same,AUC(0-inf),[7]; [10],24400 ng·h/mL
same,AUC(0-inf),[7]; [11],30000 ng·h/mL
same,AUC(0-t),[7]; [10],21900 ng·h/mL
same,AUC(0-t),[7]; [11],28700 ng·h/mL
same,Cmax,[7]; [10],927 ng/mL
same,Tmax,[7]; [10],1.11 h
same,half-life,[7]; [10],~23 h
same,half-life,[7]; [11],~28 h
same,Vd/F,[7]; [10],13.9 L
same,AUC(0-inf),[7]; [12],60300 ng·h/mL
same,AUC(0-t),[7]; [12],57800 ng·h/mL
same,Cmax,[7]; [12],1950 ng/mL
same,Tmax,[7]; [12],1 h
same,half-life,[7]; [12],25.8 h
same,Vd/F,[7]; [12],12.5 L
same,NOAEL at 4 weeks,4-week study in dogs; in vivo,3 mg/kg/day
same,AUC(0-t),"4-week study in dogs; plasma, 3 mg/kg/day",7230 ng·h/mL
same,Cmax,"4-week study in dogs; plasma, 3 mg/kg/day",935 ng/mL
same,highest unbound mean free fraction AUC0−last at NOAEL,dogs [8],670 ng·h/mL
same,highest unbound mean free fraction Cmax at NOAEL,dogs [8],11.8 ng/mL
same,bile duct proliferation,"dogs [8]; 4 weeks, medium and high doses",minimal to mild
same,"liver enzymes (ALT, alkaline phosphatase, gamma glutamyltransferase)","dogs [8]; 4 weeks, medium and high doses",increase in liver enzymes
same,serious adverse events related to ETC‐206,healthy volunteers [9]; general safety,did not show any serious adverse events
same,"AEs grade 1–2 CTCAE, %",healthy volunteers [9]; [13],9 (56)
same,"AEs grade 3 CTCAE: ↑CK, %",healthy volunteers [9]; [13],0
same,"Gastrointestinal disorders, %",healthy volunteers [9]; [13],4 (25)
same,"Investigations, %",healthy volunteers [9]; [13],5 (31)
same,↑ALT (%),healthy volunteers [9]; [13],1 (6)
same,↑CK (%),healthy volunteers [9]; [13],1 (6)
same,↓WBC (%),healthy volunteers [9]; [13],3 (19)
same,SAEs: seizure (%),"healthy volunteers [9]; 10 mg single dose FASTED (N = 16), not drug-related",1 (6) ^a
same,"AEs grade 1–2 CTCAE, %",healthy volunteers [9]; 10 mg single dose FED (N = 9),9 (100)
same,"AEs grade 3 CTCAE: ↑CK, %",healthy volunteers [9]; 10 mg single dose FED (N = 9),0
same,"Gastrointestinal disorders, %",healthy volunteers [9]; 10 mg single dose FED (N = 9),2 (22)
same,"Investigations, %",healthy volunteers [9]; 10 mg single dose FED (N = 9),1 (11)
same,SAEs: seizure (%),healthy volunteers [9]; 10 mg single dose FED (N = 9),0
same,↑ALT (%),healthy volunteers [9]; 10 mg single dose FED (N = 9),0
same,↑CK (%),healthy volunteers [9]; 10 mg single dose FED (N = 9),0
same,↓WBC (%),healthy volunteers [9]; 10 mg single dose FED (N = 9),1 (11)
same,"AEs grade 1–2 CTCAE, %",healthy volunteers [9]; [14],11 (79)
same,"Gastrointestinal disorders, %",healthy volunteers [9]; [14],3 (21)
same,"Investigations, %",healthy volunteers [9]; [14],1 (7)
same,SAEs: seizure (%),healthy volunteers [9]; [14],0
same,↑ALT (%),healthy volunteers [9]; [14],0
same,↑CK (%),healthy volunteers [9]; [14],0
same,↓WBC (%),healthy volunteers [9]; [14],0
same,"AEs grade 3 CTCAE: ↑CK, %","healthy volunteers [9]; 20 mg single dose FASTED (N = 14), not drug-related",1 (7) ^b
same,"Diarrhea, %",healthy volunteers [9]; [13],3 (19)
same,"Diarrhea, %",healthy volunteers [9]; 10 mg single dose FED (N = 9),2 (22) ^f
same,"Diarrhea, %",healthy volunteers [9]; [14],3 (21) ^g
same,maximum administered dose,"healthy volunteers [9]; single dose, fasted, no dose‐limiting toxicity, not the maximum tolerated dose",20 mg

# Source: article PMC6951458 (Clinical and Translational Science, 2019)
